Data as given in patent publication US20200071316A1, “ACTIVATORS OF THE RETINOIC ACID INDUCIBLE GENE "RIG-I" PATHWAY AND METHODS OF USE THEREOF” (Kineta Immuno-Oncology LLC, priority 2018, published 2020).
Marks after values point to notes of the source that are not given here.

Key:
[1] = test system: IRF3 signaling pathway (IRF-inducible ISG54 promotor) in THP1-Lucia ISG cells; test: THP1-Lucia ISG reporter assay: induction of IRF3-dependent luciferase activity; type: cell-based; conditions: Homo sapiens, PMA-differentiated cells, 18 h after stimulation, read-out: THP1 ISG: fold increase of IRF3-dependent luciferase activity over background; for fold induction at 10 µM: 10 μM compound
Description: The compounds were evaluated in the THP1-Lucia™ ISG (interferon stimulated genes) reporter assay to determine if the compounds activate the IRF3 signaling pathway. The THP1-Lucia™ cells (InvivoGen) express the secreted luciferase (Lucia) reporter gene under the control of an IRF-inducible promotor. The reporter cell line was developed from human monocytic leukemia THP-1 cells.
(§1) The promotor was comprised of five IFN-stimulated response elements (ISRE) fused to an ISG54 minimal promotor which is unresponsive to NF-kB or AP-1 pathways. […] The IRF3-deficient THP1-Lucia™ ISG IRF3 −/− reporter cell line was generated by CRISPR technology from the parent THP1-Lucia™ ISG reporter cell line.
(§2) 5 THP1-Lucia™ ISG cells and IRF3-deficient THP1-Lucia™ ISG IRF3 −/− cells were differentiated with PMA (100 ng/ml) and stimulated with compounds at the indicated concentrations (5 to 20 μM), positive control, or not treated (background). Luciferase secretion was quantified using the QUANTI-Luc luciferase assay system (InvivoGen) 18 h after stimulation. Data are shown as fold increase luciferase activity over background in Table 7 and represent the IRF3-dependent ISG54 promotor activity by the THP1-Lucia™ ISG cells in response to compounds. […] The fold increase of compounds (10 μM, *20 μM, **5 μM) induced IRF3 dependent luciferase activity is indicated as follows: “−” indicates less than 2.4 fold increase; “+” indicates a 2.4-4.9 fold increase; “++” indicates a 5-9.9 fold increase; “+++” indicates a 10-19 fold increase; “++++” indicates a 20-39 fold increase; “+++++” indicates greater than or equal to 40 fold increase.

[2] = test system: CXCL10 secretion by CT26 cells; test: RIG-I dependent CXCL10 secretion by CT26 colon carcinoma cells (ELISA); type: cell-based, murine; conditions: 24 h
Description: (§3) The CT26 murine colon carcinoma cell line (ATCC) was used to evaluate the induction of CXCL10 secretion. CXCL10 is an important chemokine in tumor immune biology that recruits tumor-specific T cells to the tumor. To confirm that compound-mediated CXCL10 production was RIG-I specific, RIG-I deficient CT2-RIG-1−/− cells were generated by Kineta using CRISPR technology.
(§4) CT26 cells were seeded at a density of 1×10^4 cells per well on a 96-well tissue culture plate in 100 μL of cell culture and cells were incubated at 37° C. and 5% CO2 for 24 hr. Next, CT26 cells were treated with compounds at the indicated concentrations. CXCL10 was quantified by ELISA from supernatants taken 24 h after compound stimulation by use of the CXCL10 DuoSet ELISA kit (Cat # DY466, R&D, Minneapolis, Minn., USA) according to the manufacturer's instructions.
(§5) CXCL10 secretion by CT26 cells in response to compounds (in an amount of 5 to 20 μM) of the present disclosure is shown in Table 8. The compound-induced CXCL10 production was RIG-I dependent, since none of the compounds mediated CXCL10 secretion in RIG-I deficient CT26 RIG-1−/− cells. The compounds (10 μM, *20 μM, **5 μM) are indicated in the table as follows: “−” indicates less than 100 pg/mL; “+” indicates 100-199 pg/mL; “++” indicates 200-399 pg/mL; “+++” indicates 400-799 pg/mL; “++++” indicates 800 to 1599 pg/mL; “+++++” indicates greater than or equal to 1600 pg/ml.

[3] = test system: RIG-I deficient CT26 RIG-1−/− cells; test: CXCL10 secretion in RIG-I deficient CT26 RIG-1−/− cells (ELISA); type: cell-based, murine; conditions: 24 h
Description: as §3, §4, §5

[4] = test system: THP1-Lucia ISG IRF3 −/− cells; test: IRF3-deficient THP1-Lucia ISG IRF3 −/− reporter assay (counter-screen); type: cell-based; conditions: Homo sapiens, 18 h after stimulation, read-out: THP1 ISG IRF3 −/−: fold increase of luciferase activity over background; for fold induction at 10 µM: 10 μM compound
Description: as §1, §2

Structure (SMILES) | CXCL10 secretion by CT26 cells ([2]; 10 μM compound) | CXCL10 secretion by CT26 RIG-I −/− cells ([3]; 10 μM compound) | fold induction at 10 µM [1] | fold induction at 10 µM [4] | also measured
NS(=O)(=O)c1ccc2nc(NC(=O)c3cc4ccccc4cc3OCCCCN3CCOCC3)sc2c1 [Example 32, 3-[4-(morpholin-4-yl)butoxy]-N-(6-sulfamoyl-1,3-benzothiazol-2-yl)naphthalene-2-carboxamide] | ++++ (“++++” indicates 800 to 1599 pg/mL) | − (“−” indicates less than 100 pg/mL) |  |  | fold induction at 5 µM ([1]; 5 μM compound (**)): 5 to 9.9; fold induction at 5 µM ([4]; 5 μM compound (**)): < 2.4
O=C(Nc1nc2ccc(S(=O)(=O)N3CCCC3)cc2s1)c1ccc(-c2ccccc2)cc1OCCN1CCOCC1 [Example 47, 3-[2-(morpholin-4-yl)ethoxy]-N-[6-(pyrrolidine-1-sulfonyl)-1,3-benzothiazol-2-yl]-[1,1′-biphenyl]-4-carboxamide] | +++ (“+++” indicates 400-799 pg/mL) | − (“−” indicates less than 100 pg/mL) | ≥ 40 | < 2.4 | 
O=C(Nc1nc2ccc(S(=O)(=O)N3CCCCC3)cc2s1)c1cc2ccccc2cc1OCCN1CCOCC1 [Example 37, 3-[2-(morpholin-4-yl)ethoxy]-N-[6-(piperidine-1-sulfonyl)-1,3-benzothiazol-2-yl]naphthalene-2-carboxamide] | +++ (“+++” indicates 400-799 pg/mL) | − (“−” indicates less than 100 pg/mL) | 10 to 19 | < 2.4 | 
O=C(Nc1nc2ccc(S(=O)(=O)N3CCCC3)cc2s1)c1cc2c(cc1OCCN1CCOCC1)CCC2 [Example 91, 6-[2-(morpholin-4-yl)ethoxy]-N-[6-(pyrrolidine-1-sulfonyl)-1,3-benzothiazol-2-yl]-2,3-dihydro-1H-indene-5-carboxamide] |  |  | 10 to 19 | < 2.4 | 
O=C(Nc1nc2ccc(S(=O)(=O)N3CCCC3)cc2s1)c1cc2ccccc2cc1OCCN1CC2CC(C1)O2 [Example 89, 3-(2-{6-oxa-3-azabicyclo[3.1.1]heptan-3-yl}ethoxy)-N-[6-(pyrrolidine-1-sulfonyl)-1,3-benzothiazol-2-yl]naphthalene-2-carboxamide] |  |  | 10 to 19 | < 2.4 | 
O=C(Nc1nc2ccc(S(=O)(=O)N3CCCC3)cc2s1)c1cc2ccccc2cc1OCCN1CCC(F)(F)CC1 [Example 79, 3-[2-(4,4-difluoropiperidin-1-yl)ethoxy]-N-[6-(pyrrolidine-1-sulfonyl)-1,3-benzothiazol-2-yl]naphthalene-2-carboxamide] |  |  |  |  | CXCL10 secretion by CT26 cells ([2]; 5 μM compound (**)): +** (“+” indicates 100-199 pg/mL); CXCL10 secretion by CT26 RIG-I −/− cells ([3]; 5 μM compound (**)): −** (“−” indicates less than 100 pg/mL)
O=C(Nc1cc2ccc(S(=O)(=O)N3CCC3)cc2s1)c1cc2ccccc2cc1OCCCCN1CCOCC1 [Example 86, N-(6-(azetidin-1-ylsulfonyl)benzo[b]thiophen-2-yl)-3-(4-morpholinobutoxy)-2-naphthamide] |  |  | 20 to 39 | < 2.4 | 
O=C(Nc1nc2ccc(S(=O)(=O)N3CCCC3)cc2s1)c1cc2ccccc2cc1OCCN1CC2CCC1CO2 (centres unmarked) [Example 88, 3-(2-{2-oxa-5-azabicyclo[2.2.2]octan-5-yl}ethoxy)-N-[6-(pyrrolidine-1-sulfonyl)-1,3-benzothiazol-2-yl]naphthalene-2-carboxamide] |  |  | 20 to 39 | < 2.4 | 
COCC1CN(CCOc2cc3ccccc3cc2C(=O)Nc2nc3ccc(S(=O)(=O)N4CCCC4)cc3s2)CCO1 (centres unmarked) [Example 87, 3-{2-[2-(methoxymethyl)morpholin-4-yl]ethoxy}-N-[6-(pyrrolidine-1-sulfonyl)-1,3-benzothiazol-2-yl]naphthalene-2-carboxamide] |  |  | 20 to 39 | < 2.4 | 
O=C(Nc1nc2ccc(S(=O)(=O)N3CCCC3)cc2s1)c1cc2ccccc2cc1OCCN1C[C@H]2C[C@@H]1CO2 [Example 90] |  |  | 20 to 39 | < 2.4 | 
